Measurements from PubChem BioAssay (NCI).
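Method: 48-hour compound exposure of cells in 96-well plates, five concentrations, linear interpolation of endpoints. At the TGI there is no net growth.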

What was measured:
Test in all cases: inhibition of tumour cell growth, NCI panel, 48 h
786-0 renal = tested on: 786-0 renal
A549 NSCLC = tested on: A549 NSCLC
IGROV1 ovarian = tested on: IGROV1 ovarian
LOX IMVI melanoma = tested on: LOX IMVI melanoma
NCI-H226 lung = tested on: NCI-H226 lung
NCI-H460 lung = tested on: NCI-H460 lung
NCI-H522 lung = tested on: NCI-H522 lung
SF-268 CNS = tested on: SF-268 CNS
SF-295 CNS = tested on: SF-295 CNS
SF-539 CNS = tested on: SF-539 CNS
SK-MEL-28 melanoma = tested on: SK-MEL-28 melanoma
SN12C renal = tested on: SN12C renal
SW-620 colon = tested on: SW-620 colon
UO-31 renal = tested on: UO-31 renal
DU-145 prostate = tested on: DU-145 prostate
MCF7 breast = tested on: MCF7 breast

Row | Structure (SMILES) | TGI (786-0 renal) [µM] | TGI (A549 NSCLC) [µM] | TGI (IGROV1 ovarian) [µM] | TGI (LOX IMVI melanoma) [µM] | TGI (NCI-H226 lung) [µM] | TGI (NCI-H460 lung) [µM] | TGI (NCI-H522 lung) [µM] | TGI (SF-268 CNS) [µM] | TGI (SF-295 CNS) [µM] | TGI (SF-539 CNS) [µM] | TGI (SK-MEL-28 melanoma) [µM] | TGI (SN12C renal) [µM] | TGI (SW-620 colon) [µM] | TGI (UO-31 renal) [µM] | TGI (DU-145 prostate) [µM] | TGI (MCF7 breast) [µM]
1 | CC1=NN(c2ccccc2)C(=O)C1=C1SCCS1 | > 100 | > 100 | > 100 | > 63.4 | > 100 | > 100 | 97.1 | > 100 | > 100 | > 100 | > 100 | > 100 | > 53.8 | > 100 |  | 
2 | Cc1ccc(/C(O)=C/c2nc3ccccc3oc2=O)cc1 | > 100 | > 100 | > 100 |  | > 100 | > 100 | 90.1 | > 100 | > 100 | > 100 |  | > 100 |  | > 100 | > 100 | > 100
3 | O=C1CCCCC/C1=C\c1ccc(F)cc1 | > 100 | > 100 | > 100 | > 100 | > 100 | > 100 | > 100 | > 100 | > 100 |  | > 100 | > 100 | > 100 | > 100 | > 100 | 
4 | CC(=O)c1cccc(NC(=O)/C(=N\NC(C)(C)C)c2c(O)c3ccccc3oc2=O)c1 | > 100 | > 100 | > 100 | > 100 | > 100 | > 100 | > 100 | > 100 | > 100 | > 100 | > 100 | > 100 | > 100 | > 100 |  | 
5 | CN(C)c1ccc(-c2cc(=O)c3cc4c(cc3[nH]2)OCO4)cc1 | > 100 | > 100 | > 100 | > 100 | > 100 | > 100 |  | > 100 | > 100 | > 100 | > 100 | > 100 | > 100 | > 100 |  | 
6 | COc1ccc2c(c1)c(=O)c1ccccc1n2/C=C/C(=O)O | > 100 | > 100 | > 100 | > 65.6 | > 100 | > 100 | > 100 | > 100 | > 100 | > 100 | > 100 | > 100 | > 100 | > 100 |  | 
7 | C/C=C(C)/C=C/CC(C)CCC=C(C)C (configuration not stated) | > 100 | > 100 | > 100 | > 100 | > 100 | > 100 |  |  | > 100 | > 100 | > 100 | > 100 | > 100 | > 100 | > 100 | > 100
8 | CCCN(CCCCC(NC(C)=O)C(=O)NCc1ccccc1)C(=O)N(C)N=O (configuration not stated) | > 100 | > 100 | > 100 | > 100 | > 100 | > 100 | > 100 | > 100 | > 100 | > 100 | > 100 | > 100 | > 100 | > 100 |  | 
9 | COc1ccc(C[C@@H]2Cc3cc(OC)c(OC)cc3CN2C)cc1 | > 100 | > 100 |  |  |  | > 100 | > 100 | > 100 | > 100 |  | > 100 | > 100 | > 100 | > 100 |  | 
10 | COC(=O)[C@@H]1CN(C(=O)c2ccccc2)C(=O)N1 | > 100 | > 100 | > 100 | > 100 | > 100 | > 100 | > 100 | > 100 | > 100 | > 100 | > 100 | > 100 | > 100 | > 100 | > 100 | 
11 | COc1cccc2c1CCc1ccccc1CC2=O | > 100 | > 100 | > 100 | > 100 | > 100 | > 100 | > 100 | > 100 | > 100 | > 100 | > 100 | > 100 | > 100 | > 100 |  | 
12 | COc1ccc(N2C(=O)C3c4[nH]c5ccc(OC)cc5c4C4CCC(C(C)(C)C)CC4C3C2=O)cc1 (configuration not stated) | 66.1 | > 100 | > 100 | > 100 | > 100 | > 100 | 89.3 | > 100 | 32.8 | 55.1 | > 100 | > 100 | > 100 | > 100 |  | 
13 | O=S1(=O)OCCOS(=O)(=O)C1I | > 100 | > 100 | > 100 |  | > 100 |  | > 100 | > 100 | > 100 | > 100 | > 100 | > 100 | > 100 | > 100 |  | 
14 | CCOC(=O)Cc1nnc2c(-c3ccccc3)nc3ccccc3n12 | > 100 | > 100 | > 100 | > 100 | > 100 | > 100 |  | 39.7 |  | > 100 | > 100 | > 100 | > 100 | > 100 | 73.4 | > 100
15 | N#Cc1c2ccc([N+](=O)[O-])cc2c(=O)n2c1sc1ccc(C(F)(F)F)cc12 | > 100 | > 100 | > 100 | > 100 | > 100 | > 100 | > 100 | > 100 | > 100 | > 100 | > 100 | > 100 | > 100 | > 100 | > 100 | 
16 | COc1cc(C2=NN(C)C(c3ccc([N+](=O)[O-])o3)C2)cc(OC)c1OC (configuration not stated) | 42.7 | > 100 | > 100 | > 100 | > 100 | > 100 | > 100 | > 100 | > 100 | > 100 | > 100 | > 100 | 30.6 | > 100 |  | 
17 | CC1CN=C(Nc2ccc(F)cc2F)S1 (configuration not stated) | > 100 | > 100 | > 100 | > 100 |  | > 100 |  | > 100 | > 100 | > 100 | > 100 | > 100 | > 100 | > 100 | > 100 | > 100
